Assay results: patent US10040790B2, “Bicyclic heterocycles as FGFR inhibitors” (Incyte Corporation, priority 2013, dated 2018)

Assays:
Assay type in all cases: biochemical
FGFR1 = FGFR1 (Homo sapiens (Human), UniProt P11362); assay: FGFR Enzymatic Assay (FRET peptide phosphorylation), FGFR1; conditions: ATP 210 μM, enzyme 0.02 nM
Description: (§1) The inhibitor potency of the exemplified compounds was measured in an enzyme assay that measures peptide phosphorylation using FRET measurements to detect product formation. Inhibitors were serially diluted in DMSO and a volume of 0.5 μL was transferred to the wells of a 384-well plate. For FGFR3, a 10 μL volume of FGFR3 enzyme (Millipore) diluted in assay buffer (50 mM HEPES, 10 mM MgCl2, 1 mM EGTA, 0.01% Tween-20, 5 mM DTT, pH 7.5) was added to the plate and pre-incubated for 5-10 minutes. Appropriate controls (enzyme blank and enzyme with no inhibitor) were included on the plate. The assay was initiated by the addition of a 10 μL solution containing biotinylated EQEDEPEGDYFEWLE peptide substrate (SEQ ID NO: 1) and ATP (final concentrations of 500 nM and 140 μM respectively) in assay buffer to the wells. The plate was incubated at 25° C. for 1 hr. The reactions were ended with the addition of 10 μL/well of quench solution (50 mM Tris, 150 mM NaCl, 0.5 mg/mL BSA, pH 7.8; 30 mM EDTA with Perkin Elmer Lance Reagents at 3.75 nM Eu-antibody PY20 and 180 nM APC-Streptavidin). The plate was allowed to equilibrate for ˜1 hr before scanning the wells on a PheraStar plate reader (BMG Labtech).
(§2) FGFR1 and FGFR2 were measured under equivalent conditions with the following changes in enzyme and ATP concentrations: FGFR1, 0.02 nM and 210 μM, respectively and FGFR2, 0.01 nM and 100 μM, respectively. The enzymes were purchased from Millipore or Invitrogen.
(§3) GraphPad prism3 was used to analyze the data. The IC50 values were derived by fitting the data to the equation for a sigmoidal dose-response with a variable slope. Y=Bottom+(Top−Bottom)/(1+10^((Log IC50−X)*HillSlope)) where X is the logarithm of concentration and Y is the response.

FGFR2 = FGFR2 (Homo sapiens (Human), UniProt P21802); assay: FGFR Enzymatic Assay (FRET peptide phosphorylation), FGFR2; conditions: ATP 100 μM, enzyme 0.01 nM
FGFR2, sequence (P21802 22-821): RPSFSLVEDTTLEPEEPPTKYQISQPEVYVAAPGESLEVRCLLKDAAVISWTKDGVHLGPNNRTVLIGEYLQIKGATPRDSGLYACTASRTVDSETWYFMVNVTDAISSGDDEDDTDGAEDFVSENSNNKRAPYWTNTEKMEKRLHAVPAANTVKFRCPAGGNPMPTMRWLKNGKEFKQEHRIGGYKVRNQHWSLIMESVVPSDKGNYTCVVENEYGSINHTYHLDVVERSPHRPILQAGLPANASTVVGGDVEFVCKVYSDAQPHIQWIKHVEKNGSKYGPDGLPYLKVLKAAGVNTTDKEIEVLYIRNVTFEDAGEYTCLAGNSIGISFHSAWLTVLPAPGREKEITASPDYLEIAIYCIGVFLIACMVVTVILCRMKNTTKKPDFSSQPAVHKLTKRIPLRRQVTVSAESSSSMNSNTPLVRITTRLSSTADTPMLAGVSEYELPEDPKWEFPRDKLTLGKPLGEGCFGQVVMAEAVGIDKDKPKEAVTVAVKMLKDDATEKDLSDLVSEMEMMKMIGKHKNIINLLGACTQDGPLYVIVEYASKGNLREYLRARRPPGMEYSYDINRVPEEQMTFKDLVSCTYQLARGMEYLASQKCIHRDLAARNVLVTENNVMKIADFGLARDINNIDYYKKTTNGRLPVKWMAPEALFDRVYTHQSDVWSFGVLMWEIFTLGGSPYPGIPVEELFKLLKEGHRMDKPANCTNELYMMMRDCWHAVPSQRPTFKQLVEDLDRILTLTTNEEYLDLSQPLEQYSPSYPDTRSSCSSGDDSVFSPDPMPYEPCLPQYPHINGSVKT
Description: as §1, §2, §3

FGFR3 = FGFR3 (Homo sapiens (Human), UniProt P22607); assay: FGFR Enzymatic Assay (FRET peptide phosphorylation), FGFR3; conditions: ATP 140 μM
FGFR3, sequence (P22607 23-806): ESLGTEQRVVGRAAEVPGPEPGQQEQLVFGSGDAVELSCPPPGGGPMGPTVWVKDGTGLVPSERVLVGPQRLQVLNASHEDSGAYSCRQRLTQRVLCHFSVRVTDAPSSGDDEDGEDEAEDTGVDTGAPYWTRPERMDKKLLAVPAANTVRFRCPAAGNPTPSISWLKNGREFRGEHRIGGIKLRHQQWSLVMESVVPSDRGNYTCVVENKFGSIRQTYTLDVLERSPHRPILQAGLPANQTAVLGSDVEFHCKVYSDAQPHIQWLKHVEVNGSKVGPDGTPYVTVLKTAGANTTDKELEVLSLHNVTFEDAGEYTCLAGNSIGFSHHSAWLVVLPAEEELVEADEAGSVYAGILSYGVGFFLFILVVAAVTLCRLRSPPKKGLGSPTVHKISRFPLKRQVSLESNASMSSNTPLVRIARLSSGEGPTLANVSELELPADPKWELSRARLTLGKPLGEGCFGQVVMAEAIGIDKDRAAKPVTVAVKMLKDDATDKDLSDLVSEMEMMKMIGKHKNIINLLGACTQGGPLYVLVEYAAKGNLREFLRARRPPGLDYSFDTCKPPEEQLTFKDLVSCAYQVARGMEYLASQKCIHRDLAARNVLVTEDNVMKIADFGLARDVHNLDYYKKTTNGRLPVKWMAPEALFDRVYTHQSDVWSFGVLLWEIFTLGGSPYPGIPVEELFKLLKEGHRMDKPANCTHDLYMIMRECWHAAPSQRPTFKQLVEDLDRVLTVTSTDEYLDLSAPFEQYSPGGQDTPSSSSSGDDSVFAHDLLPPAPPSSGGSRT
Description: as §1, §3

FGFR1, sequence (P11362 22-822): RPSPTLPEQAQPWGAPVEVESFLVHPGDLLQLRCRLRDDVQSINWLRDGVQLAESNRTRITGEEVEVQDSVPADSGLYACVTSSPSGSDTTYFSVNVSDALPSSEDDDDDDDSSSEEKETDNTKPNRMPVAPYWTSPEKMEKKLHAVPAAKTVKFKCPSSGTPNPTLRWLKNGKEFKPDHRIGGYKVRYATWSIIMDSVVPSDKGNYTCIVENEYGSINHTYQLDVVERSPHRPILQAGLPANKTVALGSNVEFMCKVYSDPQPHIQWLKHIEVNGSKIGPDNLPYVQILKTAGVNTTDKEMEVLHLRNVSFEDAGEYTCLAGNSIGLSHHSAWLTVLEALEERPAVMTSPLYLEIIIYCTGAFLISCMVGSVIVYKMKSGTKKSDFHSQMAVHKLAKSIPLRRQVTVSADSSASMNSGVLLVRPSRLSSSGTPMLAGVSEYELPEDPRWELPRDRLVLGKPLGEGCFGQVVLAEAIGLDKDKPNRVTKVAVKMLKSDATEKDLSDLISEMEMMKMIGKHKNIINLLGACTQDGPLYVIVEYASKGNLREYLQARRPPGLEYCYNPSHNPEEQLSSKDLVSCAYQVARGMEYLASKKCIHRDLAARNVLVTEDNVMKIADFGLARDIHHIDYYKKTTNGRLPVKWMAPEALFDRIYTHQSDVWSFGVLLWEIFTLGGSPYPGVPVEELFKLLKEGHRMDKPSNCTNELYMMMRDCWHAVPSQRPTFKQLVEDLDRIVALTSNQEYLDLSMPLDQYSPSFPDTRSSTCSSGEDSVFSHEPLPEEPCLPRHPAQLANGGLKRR

| SMILES | IC50 (FGFR1) [nM] | IC50 (FGFR2) [nM] | IC50 (FGFR3) [nM] |
| --- | --- | --- | --- |
| COc1cc(OC)c(F)c(N2Cc3cnc(N)c(C#N)c3N(CC3CC3)C2=O)c1F [Example 49, 7-amino-1-(cyclopropylmethyl)-3-(2,6-difluoro-3,5-dimethoxyphenyl)-2-oxo-1,2,3,4-tetrahydropyrido[4,3-d]pyrimidine-8-carbonitrile] | < 100 | < 100 | < 100 |
| COc1cc(OC)c(F)c(N2Cc3cnc(NC4CC4)cc3C3(CC3)C2=O)c1F [Example 41, 6′-(cyclopropylamino)-2′-(2,6-difluoro-3,5-dimethoxyphenyl)-1′H-spiro[cyclopropane-1,4′-[2,7]naphthyridin]-3′(2′H)-one] | < 100 | < 100 | < 100 |
| COc1cc(OC)c(F)c(N2Cc3cnc(N)cc3C(C)(C)C2=O)c1F [Example 22, 6-amino-2-(2,6-difluoro-3,5-dimethoxyphenyl)-4,4-dimethyl-1,2-dihydro-2,7-naphthyridin-3(4H)-one] | < 100 | < 100 | < 100 |
| COc1cc(OC)c(F)c(N2Cc3cnc(Nc4cccnc4)cc3C3(CC3)C2=O)c1F [Example 32, 2′-(2,6-difluoro-3,5-dimethoxyphenyl)-6′-(pyridin-3-ylamino)-1′H-spiro[cyclopropane-1,4′-[2,7]naphthyridin]-3′(2′H)-one] | < 100 | < 100 | < 100 |
| COc1cc(OC)c(F)c(N2Cc3cnc(Nc4cccc(F)c4)cc3C3(CC3)C2=O)c1F [Example 33, 2′-(2,6-difluoro-3,5-dimethoxyphenyl)-6′-(3-fluorophenylamino)-1′H-spiro[cyclopropane-1,4′-[2,7]naphthyridin]-3′(2′H)-one] | < 100 | < 100 | < 100 |
| COc1cc(OC)c(F)c(N2Cc3cnc(N)c(C)c3N(c3ccccc3F)C2=O)c1F [Example 45, 7-amino-3-(2,6-difluoro-3,5-dimethoxyphenyl)-1-(2-fluorophenyl)-8-methyl-3,4-dihydropyrido[4,3-d]pyrimidin-2(1H)-one] | < 100 | < 100 | < 100 |

Other lines, results leading:

| IC50 (FGFR1) [nM] | IC50 (FGFR2) [nM] | IC50 (FGFR3) [nM] | SMILES |
| --- | --- | --- | --- |
| < 100 | < 100 | < 100 | COCCOc1c(N)ncc2c1N(C)C(=O)N(c1c(F)c(OC)cc(OC)c1F)C2 [Example 5, 7-amino-3-(2,6-difluoro-3,5-dimethoxyphenyl)-8-(2-methoxyethoxy)-1-methyl-3,4-dihydro-pyrido[4,3-d]pyrimidin-2(1H)-one] |
| < 100 | < 100 | < 100 | COc1cc(OC)c(F)c(N2Cc3cnc(NC4CCN(C)CC4)cc3C3(CC3)C2=O)c1F [Example 44, 2′-(2,6-difluoro-3,5-dimethoxyphenyl)-6′-(1-methylpiperidin-4-ylamino)-1′H-spiro[cyclopropane-1,4′-[2,7]naphthyridin]-3′(2′H)-one] |
| < 100 | < 100 | < 100 | COc1cc(OC)c(F)c(N2Cc3cnc(N)c(-c4cnn(C5CCNCC5)c4)c3N(C)C2=O)c1F [Example 11, 7-amino-3-(2,6-difluoro-3,5-dimethoxyphenyl)-1-methyl-8-(1-piperidin-4-yl-1H-pyrazol-4-yl)-3,4-dihydropyrido[4,3-d]pyrimidin-2(1H)-one] |
| < 100 | < 100 | < 100 | COc1cc(OC)c(F)c(N2Cc3cnc(NC4CC(F)(F)C4)cc3C3(CC3)C2=O)c1F [Example 43, 2′-(2,6-difluoro-3,5-dimethoxyphenyl)-6′-(3,3-difluorocyclobutylamino)-1′H-spiro[cyclopropane-1,4′-[2,7]naphthyridin]-3′(2′H)-one] |
| < 100 | < 100 | < 100 | COc1cc(OC)c(F)c(N2Cc3cnc(N)c(-c4cnn(C)c4)c3N(C)C2=O)c1F [Example 8, 7-amino-3-(2,6-difluoro-3,5-dimethoxyphenyl)-1-methyl-8-(1-methyl-1H-pyrazol-4-yl)-3,4-dihydropyrido[4,3-d]pyrimidin-2(1H)-one] |
| < 100 | < 100 | < 100 | CNc1cc2c(cn1)CN(c1c(F)c(OC)cc(OC)c1F)C(=O)C21CC1 [Example 25, 2′-(2,6-difluoro-3,5-dimethoxyphenyl)-6′-(methylamino)-1′,2′-dihydro-3′H-spiro[cyclopropane-1,4′-[2,7]naphthyridin]-3′-one] |
| < 100 | < 100 | < 100 | COc1cc(OC)c(F)c(N2Cc3cnc(NCCN4CCN(C)CC4)cc3C3(CC3)C2=O)c1F [Example 30, 2′-(2,6-difluoro-3,5-dimethoxyphenyl)-6′-(2-(4-methylpiperazin-1-yl)ethylamino)-1′H-spiro[cyclopropane-1,4′-[2,7]naphthyridin]-3′(2′H)-one] |
| < 100 | < 100 | < 100 | COc1cc(OC)c(F)c(N2Cc3cnc(N)c(-c4cn[nH]c4)c3N(C)C2=O)c1F [Example 12, 7-amino-3-(2,6-difluoro-3,5-dimethoxyphenyl)-1-methyl-8-(1H-pyrazol-4-yl)-3,4-dihydro-pyrido[4,3-d]pyrimidin-2(1H)-one] |
